Source: US10730886B2, “Compound having effect of inhibiting platelet aggregation and salt thereof, and composition for preventing or treating thrombotic diseases, containing same” (SHIN POONG PHARMACEUTICAL CO., LTD., priority 2015, dated 2020)

Experiments:
[1] = system: iron chloride (FeCl3)-induced thrombogenesis model; experiment: Arterial thrombosis model, FeCl3-induced carotid artery thrombogenesis; assay type: in vivo, Sprague-Dawley rats; settings: rat, 25 mg/kg oral; for Time of thrombogenesis: FeCl3 applied 60 min after administration, occlusion time; for Fold (vs. Control): time of thrombogenesis vs. vehicle control
Protocol: Vehicle (DMSO: Tween 80: DW=1:2:17) or candidate substance (25 mg/kg) was orally administered to overnight-fasted male Sprague-Dawley rats (250 to 300 g). 30 minutes after administration, the rats were anesthetized by intraperitoneal injection of urethane (1.25 g/kg). The anesthetized animals were restrained on the operating table, and the body temperature was maintained using a heating pad during the entire operating procedure. An incision was made around the neck of the animals to carefully expose the right carotid artery, and the adipose tissues attached to the blood vessels were carefully removed. Doppler flow probe (0.5 mm-diameter, MA0.5PSB, Transonic System Inc., USA) was fixed to the exposed carotid artery, and a doppler flow-meter (TS420, Transonic System Inc., USA) was connected thereto. 60 minutes after oral administration, a piece of Whatman No. 1 filter paper (2 mm×1 mm) soaked with 50% FeCl3 solution was attached to the underlying blood vessels to which the probe was fixed. The filter paper was removed after 10 minutes, and the change of blood flow due to thrombus formation in the carotid artery was measured for 60 minutes after the time point of removal. The occlusion time was defined as the time at which the blood flow became zero more than one minute for the first time.

[2] = system: carotid artery shear stress model; experiment: Carotid artery shear stress model, amount of thrombus; assay type: in vivo, Sprague-Dawley rats; settings: rat; for Amount of thrombus (mg, Mean ± SEM): 25 mg/kg oral, twice a day for 3 days after operation; for shear stress-induced thrombogenesis compared with the control group: oral
Protocol: Vehicle (0.5% methylcellulose), clopidogrel (8 mg/kg), aspirin (50 mg/kg) or a candidate substance was orally administered to male Sprague-Dawley rats (250 to 300 g). 2 hours after administration, the rats were anesthetized by ketamine/rompun (ketamine/xylazine) cocktail 0.1 ml/100 g. Except for the normal control group, the right cervical skin of the experimental animals was incised to expose the common carotid artery. A surgical tube with a length of 1 mm and an inside diameter of 0.58 mm was inserted into the exposed carotid artery and tied with a single thread. The exposed site and the operation site were treated with an anti-adhesion agent, and then sutured for the animals to recover. After the surgery, vehicle, clopidogrel, aspirin or a candidate substance was orally administered to the rats twice a day for 3 days. On the fourth day, 2 hours after the final administration, urethane (100 mg/300 μl/100 g) was administered intraperitoneally to the rats to induce anesthesia, and the operation site was opened to separate a total of 1 cm of the blood vessel, 5 mm above and 5 mm below the surgical tube. The separated blood vessel was perfused with 0.2 ml of 0.9% saline at 0.3 ml/min to remove the remaining blood, and then maintained in 1 ml of protein lysis buffer (NaOH 2 g, Na2CO3 0.1 g in 500 ml D.W). After collected, the blood vessel thrombus was double-boiled in boiling water together with the protein lysis buffer. 200 μl of the reaction solution (10 ml bicinchoninic acid solution+200 μl 4% aqueous solution of copper sulfate) was added to 10 μl of the heated thrombus, and the mixture was reacted at 37° C. for 30 minutes and quantified with an ELISA reader (562 nm).

[3] = system: ADP-induced platelet aggregation, Human PRP; experiment: ADP-induced platelet aggregation in human PRP (lumi-aggregometer); assay type: cell-based; settings: ADP 15-20 μM
Protocol: To investigate whether the candidate substance has inhibition selectivity for shear-stress-induced platelet aggregation, which is by a physical stimulus, […] experiment was conducted by activating platelets with physiological agonists—i.e., thrombin, collagen and ADP—to study the inhibitory effect of the candidate substance.
Human PRP (598.8 μl) was treated with 1.2 μl of the candidate substance per concentration (25, 100, 250 μM) and reacted at 37° C. for 3 minutes using a thermomixer. Then, PRP (495 μl) was put in the aggregometer cuvette and preincubated for 1 minute, followed by treatment with platelet aggregation-inducing reagent, thrombin (0.6-0.8 U/ml), collagen (2-5 μg/ml), or ADP (adenosine diphosphate, 15-20 μM) at the minimum concentration causing maximum aggregation. The degree of aggregation of the platelets was measured by a turbidity change using a lumi-aggregometer (Chrono-Log Co., USA). The turbidity of the PRP was considered as 0%, and the turbidity of the PPP was considered as 100%. During the measurement, the reaction mixture was continuously stirred at 1,000 rpm with a silicone-coated magnetic stir bar.

[4] = system: human vascular endothelial cells (EA.hy926); experiment: Cytotoxicity in EA.hy926 cell line (MTT assay); assay type: cell-based; settings: 24 hours
Protocol: 5-1. Evaluation of Cytotoxicity of Candidate Substances Using EA.hy926 Cell Line
Experiments were conducted to determine the cytotoxicity of candidate substances in human vascular endothelial cells (EA.hy926). EA.hy926 was passaged in DMEM (Dulbecco's […]) supplemented with 10% fetal bovine serum (FBS) at 5% CO2/37° C. The cells were cultured in a 96 well plate at 1×10^4 cells/well for 48 hours, washed twice with DMEM and then cultured for 24 hours. Candidate substances were prepared at final concentrations of 25 and 100 μM, applied to the wells at 200 μl per well and cultured for 24 hours. MTT assay was used to measure the absorbance at 570 nm after colorization in violet.

[5] = system: human platelets; experiment: Cytotoxicity in human platelets (LDH leakage); assay type: cell-based; settings: 3 min
Protocol: 5-2. Evaluation of Cytotoxicity of Candidate Substances Using Human Platelets
Leakage of lactate dehydrogenase (LDH) from the platelets was measured by a spectro-photometry method. 1.2 μl of the test substance was added to 598.8 μl of PRP, and the mixture was reacted at 37° C. for 3 minutes using a thermomixer. After the reaction, 100 μl of the sample was centrifuged at 12,000 g for 2 minutes, and 80 μl of the supernatant was taken and refrigerated until evaluation. The evaluation was performed within 24 hours. […] 25 μl of the sample was added to 1 ml of a pre-warmed Tris-EDTA NADH solution (56 mM Tris(hydroxymethyl) aminomethane, 5.6 mM EDTA, 0.17 mM β-NADH pH 7.4) and reacted for 5 minutes at 37° C. Then, 100 μl of a 14 mM pyruvate solution previously heated at 37° C. was added to the reaction mixture, and absorbance was immediately measured at a wavelength of 339 nm for 1 minute using a spectrophotometer (UV-Vis spectrophotometer, UV-2201, Shidamadzu, Japan). The rate of decrease in absorbance means the rate of oxidation of NADH, indicating the activity of LDH liberated from platelets. Total activity of LDH was measured by inducing lysis of platelets with 0.3% Triton X-100. The basal level of LDH (Control) was measured in plasma. The activity of each sample was measured as a percentage of the total activity of LDH.

## COc1cc(C(=O)Oc2c(C)occc2=O)ccc1O [Example 14, 2-Methyl-4-oxo-4H-pyran-3-yl 4-hydroxy-3-methoxybenzoate]
[1]
  Time of thrombogenesis: 615 ± 54 s
  Fold (vs. Control): 1.7
[2]
  Amount of thrombus (mg, Mean ± SEM): 0.066 ± 0.006 mg
  shear stress-induced thrombogenesis compared with the control group: significantly, remarkably inhibited
[3]; compound 25 μM
  Degree of platelet aggregation (%, Mean ± SEM): 74.5 ± 2.5%
[3]; compound 100 μM
  Degree of platelet aggregation (%, Mean ± SEM): 75.0 ± 3.0%
[3]; compound 250 μM
  Degree of platelet aggregation (%, Mean ± SEM): 63.5 ± 5.5%
[4]; EA.hy926, 25 μM
  Cell viability (%): 99.6 ± 1.7%
[4]; EA.hy926, 100 μM
  Cell viability (%): 99.5 ± 1.6%
[5]; 25 μM
  LDH leakage (%, Mean ± SEM): 4.8 ± 0.2%
[5]; 100 μM
  LDH leakage (%, Mean ± SEM): 5.6 ± 0.9%
[5]; 250 μM
  LDH leakage (%, Mean ± SEM): 4.2 ± 0.9%

## CCc1occc(=O)c1OC(=O)c1ccc(O)c(OC)c1 [Example 13, 2-Ethyl-4-oxo-4H-pyran-3-yl 4-hydroxy-3-methoxybenzoate]
[1]
  Time of thrombogenesis: 752 ± 69 s
  Fold (vs. Control): 2.1
[2]
  Amount of thrombus (mg, Mean ± SEM): 0.064 ± 0.006 mg
  shear stress-induced thrombogenesis compared with the control group: significantly, remarkably inhibited
[3]; compound 25 μM
  Degree of platelet aggregation (%, Mean ± SEM): 75.5 ± 1.5%
[3]; compound 100 μM
  Degree of platelet aggregation (%, Mean ± SEM): 75.0 ± 1.0%
[3]; compound 250 μM
  Degree of platelet aggregation (%, Mean ± SEM): 71.5 ± 6.5%
[4]; EA.hy926, 25 μM
  Cell viability (%): 100.1 ± 1.9%
[4]; EA.hy926, 100 μM
  Cell viability (%): 94.2 ± 2.0%
[5]; 25 μM
  LDH leakage (%, Mean ± SEM): 2.2 ± 0.4%
[5]; 100 μM
  LDH leakage (%, Mean ± SEM): 4.0 ± 1.2%
[5]; 250 μM
  LDH leakage (%, Mean ± SEM): 4.0 ± 0.3%

## O=C(c1cc(O)ccc1O)N1CCc2sccc2C1 [Example 20, (6,7-Dihydrothieno[3,2-c]pyridin-5(4H)-yl)(2,5-dihydroxyphenyl)methanone]
[1]
  Time of thrombogenesis: 2122 ± 265 s
[2]
  Amount of thrombus (mg, Mean ± SEM): 0.068 ± 0.005 mg
  shear stress-induced thrombogenesis compared with the control group: significantly, remarkably inhibited
[3]; compound 25 μM
  Degree of platelet aggregation (%, Mean ± SEM): 73.0 ± 2.0%
[3]; compound 100 μM
  Degree of platelet aggregation (%, Mean ± SEM): 69.0 ± 1.0%
[3]; compound 250 μM
  Degree of platelet aggregation (%, Mean ± SEM): 66.5 ± 2.5%
[4]; EA.hy926, 25 μM
  Cell viability (%): 99.7 ± 3.2%
[4]; EA.hy926, 100 μM
  Cell viability (%): 97.7 ± 2.2%
[5]; 25 μM
  LDH leakage (%, Mean ± SEM): 4.1 ± 0.7%
[5]; 100 μM
  LDH leakage (%, Mean ± SEM): 5.2 ± 0.4%
[5]; 250 μM
  LDH leakage (%, Mean ± SEM): 3.5 ± 1.2%

## COc1ccc(NC(=O)c2ccc(O)c(OC)c2)c([N+](=O)[O-])c1 [Example 15, 4-Hydroxy-3-methoxy-N-(4-methoxy-2-nitrophenyl)benzamide]
[1]
  Time of thrombogenesis: 816 ± 78 s
  Fold (vs. Control): 2.3
[2]
  Amount of thrombus (mg, Mean ± SEM): 0.070 ± 0.006 mg
  shear stress-induced thrombogenesis compared with the control group: significantly, remarkably inhibited
[3]; compound 25 μM
  Degree of platelet aggregation (%, Mean ± SEM): 70.5 ± 2.5%
[3]; compound 100 μM
  Degree of platelet aggregation (%, Mean ± SEM): 68.5 ± 3.5%
[3]; compound 250 μM
  Degree of platelet aggregation (%, Mean ± SEM): 67.0 ± 4.0%
[4]; EA.hy926, 25 μM
  Cell viability (%): 100.8 ± 2.5%
[4]; EA.hy926, 100 μM
  Cell viability (%): 94.9 ± 3.3%
[5]; 25 μM
  LDH leakage (%, Mean ± SEM): 2.7 ± 0.1%
[5]; 100 μM
  LDH leakage (%, Mean ± SEM): 3.2 ± 0.4%
[5]; 250 μM
  LDH leakage (%, Mean ± SEM): 3.1 ± 1.3%

## O=C(c1ccc(O)c(O)c1)N1CCc2sccc2C1 [Example 1, (6,7-Dihydrothieno[3,2-c]pyridin-5(4H)-yl)(3,4-dihydroxyphenyl)methanone]
[1]
  Time of thrombogenesis: 936 ± 120 s
[2]
  Amount of thrombus (mg, Mean ± SEM): 0.065 ± 0.005 mg
  shear stress-induced thrombogenesis compared with the control group: significantly, remarkably inhibited
[3]; compound 25 μM
  Degree of platelet aggregation (%, Mean ± SEM): 77.5 ± 3.5%
[3]; compound 100 μM
  Degree of platelet aggregation (%, Mean ± SEM): 69.0 ± 6.0%
[3]; compound 250 μM
  Degree of platelet aggregation (%, Mean ± SEM): 78.0 ± 7.0%
[4]; EA.hy926, 25 μM
  Cell viability (%): 92.2 ± 2.8%
[4]; EA.hy926, 100 μM
  Cell viability (%): 94.2 ± 1.9%
[5]; 25 μM
  LDH leakage (%, Mean ± SEM): 2.7 ± 0.5%
[5]; 100 μM
  LDH leakage (%, Mean ± SEM): 2.4 ± 0.2%
[5]; 250 μM
  LDH leakage (%, Mean ± SEM): 2.7 ± 0.5%

## O=C(c1cc(O)ccc1O)N1CCC(c2noc3ccc(F)cc23)CC1 [Example 23, (2,5-Dihydroxyphenyl)(4-(5-fluorobenzo[d]isoxazol-3-yl)piperidin-1-yl)methanone]
[1]
  Time of thrombogenesis: 674 ± 92 s
  Fold (vs. Control): 1.9
[2]
  Amount of thrombus (mg, Mean ± SEM): 0.071 ± 0.006 mg
  shear stress-induced thrombogenesis compared with the control group: significantly, remarkably inhibited
[3]; compound 25 μM
  Degree of platelet aggregation (%, Mean ± SEM): 73.5 ± 1.5%
[3]; compound 100 μM
  Degree of platelet aggregation (%, Mean ± SEM): 66.0 ± 1.0%
[3]; compound 250 μM
  Degree of platelet aggregation (%, Mean ± SEM): 65.0 ± 0.0%
[4]; EA.hy926, 25 μM
  Cell viability (%): 104.3 ± 1.8%
[4]; EA.hy926, 100 μM
  Cell viability (%): 99.9 ± 1.9%
[5]; 25 μM
  LDH leakage (%, Mean ± SEM): 1.8 ± 0.1%
[5]; 100 μM
  LDH leakage (%, Mean ± SEM): 2.2 ± 1.3%
[5]; 250 μM
  LDH leakage (%, Mean ± SEM): 3.2 ± 0.5%

## COc1cc(C(=O)N2CCc3sccc3C2)ccc1O [Example 12, (6,7-Dihydrothieno[3,2-c]pyridin-5(4H)-yl)(4-hydroxy-3-methoxyphenyl)methanone]
[1]
  Time of thrombogenesis: 665 ± 77 s
  Fold (vs. Control): 1.9
[2]
  Amount of thrombus (mg, Mean ± SEM): 0.069 ± 0.007 mg
  shear stress-induced thrombogenesis compared with the control group: significantly, remarkably inhibited
[3]; compound 25 μM
  Degree of platelet aggregation (%, Mean ± SEM): 76.0 ± 3.0%
[3]; compound 100 μM
  Degree of platelet aggregation (%, Mean ± SEM): 67.5 ± 2.5%
[3]; compound 250 μM
  Degree of platelet aggregation (%, Mean ± SEM): 77.0 ± 12.0%
[4]; EA.hy926, 25 μM
  Cell viability (%): 95.1 ± 1.9%
[4]; EA.hy926, 100 μM
  Cell viability (%): 97.2 ± 2.8%
[5]; 25 μM
  LDH leakage (%, Mean ± SEM): 2.3 ± 0.5%
[5]; 100 μM
  LDH leakage (%, Mean ± SEM): 3.6 ± 0.1%
[5]; 250 μM
  LDH leakage (%, Mean ± SEM): 3.6 ± 0.8%
